# Results reported in patent EP2426213A1, “Marker for sunitnib resistance formation” (Max-Planck-Gesellschaft zur Förderung der Wissenschaften …, priority 2010, dated 2012).
# Columns and labels:
# Type in all cases: cell-based, Human
# A498 [1] = experiment: Propidium iodide (PI) apoptosis assay, LD50 after 72 h
# Procedure: (§1) Human kidney carcinoma and melanoma cell lines A498, A704, CAKI1, CAKI2, WM115, WM266-4 and C8161 were provided by M. Herlyn (Wistar Institute, Philadephia) and R. Gillies (Arizona Cancer Center, Phoenix) or purchased from the American Tissue Culture Collection. CAKI1, CAKI2 and C8161 cells were cultured in Dulbecco's modified Eagle's medium (DMEM; Gibco Life Technologies Inc.), supplemented with 10 % fetal calf serum (FCS), 2 mM glutamine, and 1 % nonessential amino acids. A498, A704 and WM115 cells were cultured in Minimum Essential Medium (MEM; Gibco Life Technologies Inc.) supplemented with 10 % FCS, 2 mM glutamine, and 1 % (v/v) nonessential amino acids. WM266-4 cells were cultured in RPMI medium (Gibco Life Technologies Inc.), supplemented with 10 % FCS and 2 mM glutamine.
# (§2) The cells were treated with Sunitinb concentrations between 2.5 µM and 20 µM for 72 h and apoptosis was determined according to Nicoletti's procedure (Riccardi and Nicoletti 2006). BD CellQuest Pro software (Becton Dickinson) for subG1 peak detection was used to determine the extent of the apoptotic cell formation. Statistical evaluation of the half maximal lethal dose-(LD50) values was assessed by using SigmaPlot (Systat Software, Inc., version 10).
# CAKI1 = experiment: as above
# Procedure: as §1, §2
# WM115^NDes [2] = experiment: Apoptosis LD50 in Sorafenib desensitized cell line
# Procedure: as §2
# (§3) To determine the drug specificity of the selection process, we also established Sorafenib selected polyclonal cell populations using the same conditions.
# C8161^NDes [3] = experiment: Apoptosis LD50 in Sorafenib desensitized cell line
# Procedure: as §2, §3
# WM266-4^NDes [4] = experiment: Apoptosis LD50 in Sorafenib desensitized cell line
# Procedure: as §2, §3
# C8161 [5] = experiment: Propidium iodide (PI) apoptosis assay, LD50 after 72 h; conditions: C8161 parental; Sunitinib 72 h; apoptosis (subG1)
# Procedure: as §1, §2
# A704 = experiment: as above; conditions: A704 parental, Sunitinib 2.5-20 µM, apoptosis (subG1)
# Procedure: as §1, §2
# WM115 [6] = experiment: as above; conditions: WM115 parental; Sunitinib 72 h; apoptosis (subG1)
# Procedure: as §1, §2
# WM266-4 [7] = experiment: as above; conditions: WM266-4 parental; Sunitinib 72 h; apoptosis (subG1)
# Procedure: as §1, §2
# A498^SDes cells = experiment: Boyden Chamber migration assay after siRNA knock-down and Sunitinib treatment; conditions: Sunitinib 12 h
# Procedure: (§4) The cells were seeded with equal numbers in 6-Well plates and transfected with 40 pmol siRNA (PRKX (AMBION, cat. no.: s224410, s224411, s11195), TTBK2 (AMBION, cat. no.: s44812, s44813, s44814), RSK4/RPS6KA6 (AMBION, cat. no.: s223751, s223752, s223753) and 5 µl lipofectamine RNAiMAX (Invitrogen) following the manufacturers' protocols. To determine the knock-down efficiency, semi-quantitative RT-PCR was performed (Primer list, see table 1). Table 1: Primer used for RT-PCR
# (§5) Apoptotic cell formation was monitored according to Nicoletti's procedure.
# (§6) Then, cells were seeded onto a membrane with 8 µm pores of a modified Boyden chamber (Schubert and Weiss) containing 500 µL serum-free medium. 10 % FCS served as chemo-attractant.
# parental A498 cells = experiment: as above; conditions: Sunitinib 12 h
# Procedure: as §4, §5, §6
# A498^SDes [8] = experiment: Apoptosis LD50 in Sunitinib desensitized cell line; conditions: A498^SDes compared to parental cell line; 72 h
# Procedure: as §2
# A704^SDes = experiment: Apoptosis LD50 in Sunitinib desensitized cell line; conditions: A704^SDes compared to parental cell line; 72 h
# Procedure: as §2
# C8161^Sdes [9] = experiment: Apoptosis LD50 in Sunitinib desensitized cell line; conditions: C8161^Sdes compared to parental cell line; 72 h
# Procedure: as §2
# WM266-4^SDes [10] = experiment: Apoptosis LD50 in Sunitinib desensitized cell line; conditions: WM266-4^SDes compared to parental cell line; 72 h
# Procedure: as §2
# WM115^SDes [11] = experiment: Apoptosis LD50 in Sunitinib desensitized cell line; conditions: WM115^SDes compared to parental cell line; 72 h
# Procedure: as §2
# A704^NDes = experiment: Apoptosis LD50 in Sorafenib selected cell line
# Procedure: as §2, §3
# WM115^SDes [12] = experiment: Increased Sunitinib-induced apoptosis (AdA) after siRNA knock-down, PI assay; conditions: RSK4 reduction by siRNA vs control siRNA, Sunitinib 72 h
# Procedure: as §4, §5
# A498^SDes [13] = experiment: as above; conditions: Sunitinib 72 h
# Procedure: as §4, §5
# (§7) To analyze the increased Sunitinib-induced apoptosis (AdA) upon gene-expression reduction compared to the control siRNA, apoptosis was determined using PI-Assays after 72 h. Gene knock-downs ranged between 50% and 90%, as estimated by scanning densitometry (Fig. 4A). […] Like for PRKX and TTBK2, the […] in gene-expression strongly correlated with the degree of desensitization.
# C8161 [14] = experiment: as above; conditions: Sunitinib 72 h
# Procedure: as §4, §5, §7
# WM115^NDes [15] = experiment: as above; conditions: Sunitinib 72 h
# Procedure: as §4, §5, §7
# C8161^Sdes [16] = experiment: as above; conditions: Sunitinib 72 h
# Procedure: as §4, §5, §7
# WM266-4^SDes [17] = experiment: as above; conditions: Sunitinib 72 h
# Procedure: as §4, §5, §7
# C8161^NDes [18] = experiment: as above; conditions: C8161NDes, Sunitinib 72 h
# Procedure: as §4, §5, §7
# WM266-4^NDes [19] = experiment: as above; conditions: Sunitinib 72 h
# Procedure: as §4, §5, §7
# A498 [20] = experiment: as above; conditions: Sunitinib 72 h
# Procedure: as §4, §5, §7
# WM115 [21] = experiment: as above; conditions: Sunitinib 72 h
# Procedure: as §4, §5, §7
# WM266-4 [22] = experiment: as above; conditions: Sunitinib 72 h
# Procedure: as §4, §5, §7
# [23] = PRKX reduction by siRNA vs control siRNA
# [24] = RSK4 reduction by siRNA vs control siRNA
# [25] = TTBK2 reduction by siRNA vs control siRNA
compound,measurement,setting,value
CNC(=O)c1cc(Oc2ccc(NC(=O)Nc3ccc(Cl)c(C(F)(F)F)c3)cc2)ccn1 [Sorafenib],Sorafenib sensitivity (apoptosis),A498 [1]; parental A498,insensitivity
same,Sorafenib sensitivity (apoptosis),CAKI1; parental CAKI1,insensitivity
same,decreased sensitivities against Sorafenib compared to the parental cell lines,"WM115^NDes [2]; WM115^NDes, Sorafenib LD50",197%
same,decreased sensitivities against Sorafenib compared to the parental cell lines,"C8161^NDes [3]; C8161^NDes, Sorafenib LD50",249%
same,decreased sensitivities against Sorafenib compared to the parental cell lines,"WM266-4^NDes [4]; WM266-4^NDes, Sorafenib LD50",130%
CCN(CC)CCNC(=O)c1c(C)[nH]c(/C=C2\C(=O)Nc3ccc(F)cc32)c1C [Sunitinib],LD50-values,C8161 [5],15.5 ± 0.7 µM
same,LD50-values,A704,2.2 ± 0.4 µM
same,LD50-values,"A498 [1]; A498 parental, Sunitinib 72 h, apoptosis (subG1)",12.4 ± 0.4 µM
same,LD50-values,WM115 [6],3.6 ± 0.9 µM
same,LD50-values,"CAKI1; CAKI1 parental, Sunitinib 72 h, apoptosis (subG1)",16.6 ± 1.5 µM
same,LD50-values,WM266-4 [7],6.4 ± 1.3 µM
same,increased Sunitinib inhibitory effect (migration),A498^SDes cells; PRKX reduction by siRNA,76.4 ± 4.1%
same,increased Sunitinib anti-migratory effect,A498^SDes cells; RSK4 reduction by siRNA,8.6 ± 3.1%
same,inhibition of migration compared to the scrambled siRNA control,parental A498 cells; PRKX reduction by siRNA,64.4 ± 11.1%
same,increase in Sunitinib inhibition of migration,parental A498 cells; RSK4 reduction by siRNA,27.3 ± 2.7%
same,increase in Sunitinib inhibition of migration,parental A498 cells; TTBK2 reduction by siRNA,37.1 ± 1.0%
same,increase of the LD50-values,A498^SDes [8],122%
same,increase of the LD50-values,A704^SDes,344%
same,increase of the LD50-values,C8161^Sdes [9],112%
same,increase of the LD50-values,WM266-4^SDes [10],174%
same,increase of the LD50-values,WM115^SDes [11],301%
same,Sunitinib LD50-value,A704^NDes; A704^NDes (Sorafenib selected),9.0 ± 2.5 µM
same,increased Sunitinib LD50-value,A704^NDes; A704^NDes in comparison to the parental cell line,419%
same,increased Sunitinib-induced apoptosis (AdA),WM115^SDes [12],14.1 ± 3.2%
same,increase of the Sunitinib LD50-values,WM115^NDes [2]; WM115^Ndes compared to parental,249%
same,decrease in Sunitinib sensitivity,C8161^NDes [3]; C8161^Ndes compared to parental,77%
same,increase of the Sunitinib LD50-values,WM266-4^NDes [4]; WM266-4^Ndes compared to parental,168%
same,increased Sunitinib-induced apoptosis (AdA),"A498^SDes [13]; PRKX reduction by siRNA vs control siRNA, A498SDes",14.7 ± 4.4%
same,increased Sunitinib-induced apoptosis (AdA),"A498^SDes [13]; RSK4 reduction by siRNA vs control siRNA, A498^SDes",14.7 ± 4.4%
same,increased Sunitinib-induced apoptosis (AdA),"A498^SDes [13]; TTBK2 reduction by siRNA vs control siRNA, A498^SDes",13.6 ± 0.4%
same,increased Sunitinib-induced apoptosis (AdA),C8161 [14]; [23],19.4 ± 2.4%
same,increased Sunitinib-induced apoptosis (AdA),C8161 [14]; [24],12.5 ± 3.6%
same,increased Sunitinib-induced apoptosis (AdA),C8161 [14]; [25],7.3 ± 4.8%
same,increased Sunitinib-induced apoptosis (AdA),"WM115^NDes [15]; PRKX reduction by siRNA vs control siRNA, WM115NDes",3.9 ± 4.8%
same,increased Sunitinib-induced apoptosis (AdA),"WM115^NDes [15]; RSK4 reduction by siRNA vs control siRNA, WM115^NDes",5.6 ± 3.8%
same,increased Sunitinib-induced apoptosis (AdA),"WM115^NDes [15]; TTBK2 reduction by siRNA vs control siRNA, WM115NDes",11.7 ± 4.4%
same,increased Sunitinib-induced apoptosis (AdA),"C8161^Sdes [16]; PRKX reduction by siRNA vs control siRNA, C8161SDes",35.8 ± 9.9%
same,increased Sunitinib-induced apoptosis (AdA),"C8161^Sdes [16]; RSK4 reduction by siRNA vs control siRNA, C8161SDes",11.9 ± 4.8%
same,increased Sunitinib-induced apoptosis (AdA),"C8161^Sdes [16]; TTBK2 reduction by siRNA vs control siRNA, C8161^SDes",20.3 ± 8.1%
same,increased Sunitinib-induced apoptosis (AdA),"WM266-4^SDes [17]; PRKX reduction by siRNA vs control siRNA, WM266-4SDes",34.1 ± 4.9%
same,increased Sunitinib-induced apoptosis (AdA),"WM266-4^SDes [17]; RSK4 reduction by siRNA vs control siRNA, WM266-4^SDes",20.2 ± 5.7%
same,increased Sunitinib-induced apoptosis (AdA),"WM266-4^SDes [17]; TTBK2 reduction by siRNA vs control siRNA, WM266-4SDes",16.8 ± 7.7%
same,increased Sunitinib-induced apoptosis (AdA),C8161^NDes [18]; [23],18.1 ± 8.8%
same,increased Sunitinib-induced apoptosis (AdA),C8161^NDes [18]; [24],6.0 ± 2.1%
same,increased Sunitinib-induced apoptosis (AdA),C8161^NDes [18]; [25],-2.2 ± 6.8%
same,increased Sunitinib-induced apoptosis (AdA),WM266-4^NDes [19]; [23],23.0 ± 5.4%
same,increased Sunitinib-induced apoptosis (AdA),WM266-4^NDes [19]; [24],5.3 ± 5.2%
same,increased Sunitinib-induced apoptosis (AdA),WM266-4^NDes [19]; [25],12.7 ± 2.5%
same,increased Sunitinib-induced apoptosis (AdA),A498 [20]; [23],6.5 ± 3.2%
same,increased Sunitinib-induced apoptosis (AdA),A498 [20]; [24],6.5 ± 3.2%
same,increased Sunitinib-induced apoptosis (AdA),A498 [20]; [25],7.1 ± 3.1%
same,increased Sunitinib-induced apoptosis (AdA),WM115 [21]; [23],3.2 ± 0.4%
same,increased Sunitinib-induced apoptosis (AdA),WM115 [21]; [24],4.8 ± 2.3%
same,increased Sunitinib-induced apoptosis (AdA),WM115 [21]; [25],4.8 ± 1.5%
same,increased Sunitinib-induced apoptosis (AdA),WM266-4 [22]; [23],22.4 ± 6.7%
same,increased Sunitinib-induced apoptosis (AdA),WM266-4 [22]; [24],7.1 ± 2.0%
same,increased Sunitinib-induced apoptosis (AdA),WM266-4 [22]; [25],5.1 ± 2.0%
